Results taken from patent US20260138961A1, “MODULATORS OF MITOCHONDRIAL DNA REPLICATION” (Pretzel Therapeutics, Inc., priority 2022, published 2026).

The compounds below were run against T1, POLγA:R309C (Homo sapiens, UniProt P54098, R309C) (assay: DNA polymerization assay, POLγA:R309C mutant). Settings: stimulation of polymerase activity, primed M13mp18 ssDNA, 37° C. 2 hours.
T1 sequence (P54098 1-1239 R309C): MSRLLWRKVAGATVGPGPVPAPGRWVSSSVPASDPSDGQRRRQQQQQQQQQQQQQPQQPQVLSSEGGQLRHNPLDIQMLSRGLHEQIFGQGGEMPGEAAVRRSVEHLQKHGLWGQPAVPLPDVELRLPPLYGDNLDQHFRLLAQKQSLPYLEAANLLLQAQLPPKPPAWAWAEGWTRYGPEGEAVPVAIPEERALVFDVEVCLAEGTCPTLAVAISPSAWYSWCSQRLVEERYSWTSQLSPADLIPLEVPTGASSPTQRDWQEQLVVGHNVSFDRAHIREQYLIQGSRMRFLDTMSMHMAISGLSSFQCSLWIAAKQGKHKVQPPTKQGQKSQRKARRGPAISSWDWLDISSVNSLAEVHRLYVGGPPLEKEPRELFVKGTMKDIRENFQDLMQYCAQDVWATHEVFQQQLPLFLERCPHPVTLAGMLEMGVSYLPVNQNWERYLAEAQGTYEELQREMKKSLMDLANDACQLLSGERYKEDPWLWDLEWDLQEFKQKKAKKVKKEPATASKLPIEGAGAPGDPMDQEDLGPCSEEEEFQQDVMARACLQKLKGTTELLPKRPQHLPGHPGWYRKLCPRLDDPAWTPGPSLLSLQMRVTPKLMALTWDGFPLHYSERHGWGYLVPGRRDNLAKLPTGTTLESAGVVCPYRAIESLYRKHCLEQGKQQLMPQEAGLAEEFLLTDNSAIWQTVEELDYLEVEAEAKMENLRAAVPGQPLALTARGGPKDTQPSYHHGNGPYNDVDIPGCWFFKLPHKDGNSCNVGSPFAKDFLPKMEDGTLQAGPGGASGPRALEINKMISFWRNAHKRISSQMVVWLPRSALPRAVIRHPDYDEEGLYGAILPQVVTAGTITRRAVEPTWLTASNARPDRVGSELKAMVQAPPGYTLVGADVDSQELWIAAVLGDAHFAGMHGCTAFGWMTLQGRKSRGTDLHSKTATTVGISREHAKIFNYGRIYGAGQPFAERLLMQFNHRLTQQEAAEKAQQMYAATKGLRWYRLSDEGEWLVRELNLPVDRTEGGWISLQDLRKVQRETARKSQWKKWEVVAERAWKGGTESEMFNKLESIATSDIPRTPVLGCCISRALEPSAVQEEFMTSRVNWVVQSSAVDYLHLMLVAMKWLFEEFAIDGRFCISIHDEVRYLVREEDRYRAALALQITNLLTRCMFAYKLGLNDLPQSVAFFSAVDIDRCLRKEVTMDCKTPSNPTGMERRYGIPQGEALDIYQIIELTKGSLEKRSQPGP
T1 sequence (Q9UHN1 1-485 partner): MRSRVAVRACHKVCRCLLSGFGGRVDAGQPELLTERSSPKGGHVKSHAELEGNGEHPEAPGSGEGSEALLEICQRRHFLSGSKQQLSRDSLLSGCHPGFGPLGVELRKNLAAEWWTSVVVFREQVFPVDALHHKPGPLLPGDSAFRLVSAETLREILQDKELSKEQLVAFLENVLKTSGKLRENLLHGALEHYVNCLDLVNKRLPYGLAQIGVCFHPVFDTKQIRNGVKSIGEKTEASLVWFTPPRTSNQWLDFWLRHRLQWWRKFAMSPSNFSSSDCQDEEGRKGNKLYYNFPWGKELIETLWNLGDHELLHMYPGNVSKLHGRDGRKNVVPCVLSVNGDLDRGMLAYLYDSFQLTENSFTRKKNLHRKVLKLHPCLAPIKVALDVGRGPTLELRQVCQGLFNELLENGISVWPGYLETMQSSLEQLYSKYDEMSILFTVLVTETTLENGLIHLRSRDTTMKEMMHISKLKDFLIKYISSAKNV
Type: biochemical
Procedure: DNA Polymerization Assay to Monitor Effects on Human Wildtype POLγ and Four Disease-Causing Mutant Variants of Human POLγ.
The ability of small molecules to stimulate the polymerase activity of POLγ was analyzed in a quantitative fluorescence SYBR Green I assay with fluorescence intensity (FI) readout.
In the presence of dNTPs, wild type human POLγ and mutant derivatives thereof were incubated with single-stranded, circular M13mp18 ssDNA hybridized to a short DNA oligonucleotide that functions as a primer for initiation of DNA synthesis. POLγ and mutant derivatives thereof will extend the primer and use the M13mp18 molecule as a template to synthesize long stretches of double-stranded DNA. SYBR Green I, which is a double-stranded DNA-binding dye, was used to quantify formation of double-stranded DNA in the reaction. When bound to double-stranded DNA, SYBR Green I fluorescence increases by up to 100-fold.
The assay was performed in the 384-well plate format. Upon addition of compounds, changes in double-stranded DNA synthesis activity can be monitored by following effects on fluorescent intensity.
The reactions also contained the accessory POLγB subunit, and the human mitochondrial single-stranded DNA binding protein (mtSSB).
The DNA template mixture used in the assay contained 0.5 nM primed M13 mp18 ssDNA, 400 nM mtSSB, 0.1 mM Tris-HCl (pH 8.0), 0.1 mM dNTP, 10 mM MgCl2, 0.1 mg/mL BSA, 1 mM TCEP solution, and 0.02% Triton X-100. The DNA template mixture for the wild type protein contained either 100 μM dNTP, 1 μM dNTP, or 0.1 μM dNTP, designated in Table 2 as 100 μM, 1 μM, and 0.1 μM, respectfully.
Microplates with compounds (0.1 μL in each well) to be tested in the assay were prepared from 10 mM compound stocks in 100% DMSO, and equal amounts of DMSO without any compound were added to positive and negative control wells.
The protein mixture was dispensed (5 μL into each well) into compound plates and incubated at 37° C. for 15 minutes. After incubation, 5 μL of the DNA template mixture was dispensed into each well. The plates were then incubated at 37° C. for 2 hours.
During incubation, a combined stop buffer and detection reagent solution was prepared. The buffer contained 25 mM EDTA (pH 8.0), 0.02% Triton X-100, and SYBR Green I [Invitrogen] diluted 10,000× (for fluorescent readout). EDTA will stop the enzymatic reaction by chelating magnesium ions.

| Compound | AC50 [µM] |
| --- | --- |
| Cc1ccc(C)c(S(=O)(=O)Nc2cccc(C(=O)N3CCCCC3C#N)c2)c1 (centres unmarked) [Example 2, N-(3-(2-cyanopiperidine-1-carbonyl)phenyl)-2,5-dimethylbenzenesulfonamide] | 8 |
| Cc1ccc(C)c(S(=O)(=O)Nc2cccc(C(=O)N3CCCCC3)c2)c1 [Example 3, 2,5-dimethyl-N-(3-(piperidine-1-carbonyl)phenyl)benzene sulfonamide] | 28 |
| Cc1ccc(C)c(S(=O)(=O)Nc2cccc(C(=O)NCC3CC3)c2)c1 [Example 4, N-(cyclopropylmethyl)-3-((2,5-dimethylphenyl)sulfonamido)benzamide] | 25 |
| Cc1ccc(C)c(S(=O)(=O)Nc2cccc(C(=O)N3CCCC[C@H]3C)c2)c1 [Example 5, (R)-2,5-dimethyl-N-(3-(2-methylpiperidine-1-carbonyl)phenyl)benzenesulfonamide] | 11 |
| Cc1ccc(C)c(S(=O)(=O)Nc2cccc(C(=O)N3CCCC[C@@H]3C)c2)c1 [Example 6, (S)-2,5-dimethyl-N-(3-(2-methylpiperidine-1-carbonyl)phenyl)benzenesulfonamide] | 13 |
| Cc1ccc(C)c(S(=O)(=O)Nc2cccc(C(=O)N3CCOCC3C#N)c2)c1 (centres unmarked) [Example 7, N-(3-(3-cyanomorpholine-4-carbonyl)phenyl)-2,5-dimethylbenzenesulfonamide] | 10 |
| Cc1ccc(C)c(S(=O)(=O)Nc2cccc(C(=O)N[C@@H](C)C3CC3)c2)c1 [Example 8, (S)-N-(1-cyclopropylethyl)-3-((2,5-dimethylphenyl)sulfonamido)benzamide] | 4 |
| Cc1cc(S(=O)(=O)Nc2cccc(C(=O)N3CCCC[C@H]3C)c2)c(C)cc1Cl [Example 9, (R)-4-chloro-2,5-dimethyl-N-(3-(2-methylpiperidine-1-carbonyl)phenyl)benzenesulfonamide] | 2 |
| Cc1cc(S(=O)(=O)Nc2cccc(C(=O)N3CCC[C@H]3C)c2)c(C)cc1Cl [Example 10, (R)-4-chloro-2,5-dimethyl-N-(3-(2-methylpyrrolidine-1-carbonyl)phenyl)benzenesulfonamide] | 1 |
| Cc1cc(S(=O)(=O)Nc2cccc(C(=O)NCc3ccccc3)c2)c(C)cc1Cl [Example 11, N-benzyl-3-((4-chloro-2,5-dimethylphenyl)sulfonamido)benzamide] | 6 |
| Cc1cc(S(=O)(=O)Nc2cccc(C(=O)N(C)C)c2)c(C)cc1Cl [Example 12, 3-((4-chloro-2,5-dimethylphenyl)sulfonamido)-N,N-dimethylbenzamide] | 3 |
| (R)-2,5-dimethyl-N-(3-(3-methylmorpholine-4-carbonyl)phenyl)benzenesulfonamide [Example 1] | 12 |

More lines, now with the values ahead:

| AC50 [µM] | Compound |
| --- | --- |
| 13 | Cc1cc(S(=O)(=O)Nc2cccc(C(=O)N(C)C(C)CO)c2)c(C)cc1Cl (single isomer, unassigned) [Example 14, 3-((4-chloro-2,5-dimethylphenyl)sulfonamido)-N-(1-hydroxypropan-2-yl)-N-methylbenzamide] |
| 3 | Cc1cc(S(=O)(=O)Nc2cc(F)cc(C(=O)N3CCC[C@H]3C)c2)c(C)cc1Cl [Example 13, (R)-4-chloro-N-(3-fluoro-5-(2-methylpyrrolidine-1-carbonyl)phenyl)-2,5-dimethylbenzenesulfonamide] |
| 2 | Cc1cc(S(=O)(=O)Nc2cccc(-c3nccs3)c2)c(C)cc1Cl [Example 16, 4-chloro-2,5-dimethyl-N-(3-(thiazol-2-yl)phenyl)benzenesulfonamide] |
| 2 | Cc1cc(S(=O)(=O)Nc2cccc(-c3ncco3)c2)c(C)cc1Cl [Example 17, 4-chloro-2,5-dimethyl-N-(3-(oxazol-2-yl)phenyl)benzenesulfonamide] |
| 5 | Cc1cc(S(=O)(=O)Nc2cccc(-c3ccn(C)n3)c2)c(C)cc1Cl [Example 18, 4-chloro-2,5-dimethyl-N-(3-(1-methyl-1H-pyrazol-3-yl)phenyl)benzenesulfonamide] |
| 3 | Cc1cc(S(=O)(=O)Nc2cccc(-c3nccn3C)c2)c(C)cc1Cl [Example 19, 4-chloro-2,5-dimethyl-N-(3-(1-methyl-1H-imidazol-2-yl)phenyl)benzenesulfonamide] |
| > 100 | Cc1cc(S(=O)(=O)Nc2cccc(-c3ncc(C#N)s3)c2)c(C)cc1Cl [Example 96, 4-chloro-N-(3-(5-cyanothiazol-2-yl)phenyl)-2,5-dimethylbenzenesulfonamide] |
| > 100 | Cc1cnc(-c2ccc(C)c(NS(=O)(=O)c3cc(C)c(Cl)cc3C)c2)s1 [Example 98, 4-chloro-2,5-dimethyl-N-(2-methyl-5-(5-methylthiazol-2-yl)phenyl)benzenesulfonamide] |
| > 100 | Cc1cnc(-c2ccc(Cl)c(NS(=O)(=O)c3cc(C)c(Cl)cc3C)c2)s1 [Example 102, 4-chloro-N-(2-chloro-5-(5-methylthiazol-2-yl)phenyl)-2,5-dimethylbenzenesulfonamide] |
| 58 | Cc1cnc(-c2cc(NS(=O)(=O)c3cc(C)c(Cl)cc3C)ccc2C)s1 [Example 103, 4-chloro-2,5-dimethyl-N-(4-methyl-3-(5-methylthiazol-2-yl)phenyl)benzenesulfonamide] |
| 8 | Cc1cc(S(=O)(=O)Nc2ccc3c(c2)CC(=O)N3)c(C)cc1Cl [Example 185, 4-chloro-2,5-dimethyl-N-(2-oxoindolin-5-yl)benzenesulfonamide] |
